Assay [1] relates to SW480 cells. Briefly: Transwell invasion assay with peptide-treated SW480 cells. Type of assay: cell-based, human. The settings on record: for invasion of colorectal cancer cells compared to the control: 50 μM, control DMSO 0.25%; for invasion of cells reduced by: FIGS. 18 and 19, concentration not given. On the procedure:
(§1) Particularly, the porous membrane of 24-well transwell plate (8 μm pore size; Costar, USA) was coated with 100 μl of matrigel (BD Biosciences, USA) diluted in serum free medium at the concentration of […], which stood at room temperature for 1 hour for fixing. The lower part of the transwell plate was coated with 100 μl of collagen type I (Sigma) at the concentration of […]. The said collagen type I was used as a chemoattractant. 1×10^4 cells resuspended in serum free medium were distributed in the upper chamber of the said 24-well transwell plate, followed by culture at 37° C. with 5% CO2 for 48 hours, during which the cells were induced to migrate from the upper chamber to the lower chamber. The non-migrated cells were eliminated from the surface of the upper chamber. […] The excessive crystal violet solution was washed off with distilled water. The selected area (×100) was photographed. The number of the cells migrated was counted from 5 different selected areas. Then, mean value and standard error were obtained.
SW480 colorectal cancer cells were treated with peptides originated from C12orf59, and effects of the peptids on invasion of the cells were analyzed.

The next assay concerns SW480sub cells. As to the kind of experiment: Transwell matrigel invasion assay with peptide-treated SW480sub cells. Type of assay: cell-based, human. The settings on record: for invasion reduced compared to vehicle control: peptide 50 μM; for colorectal cancer cell invasion reduced by / inhibitory effects on invasion: peptide 100 μg/ml, 48 hours. On the procedure: SW480sub was subpopulation of SW480 having high in vitro invasion and in vivo metastasis ability. The effect of each peptide on colorectal cancer cell invasion was analyzed using the said SW480sub. SW480sub cells were mixed with each peptide, followed by pre-incubation for 30 minutes.
as §1

Another assay deals with colorectal cancer cells. Briefly: Cellular survival rate of colorectal cancer cells by absorbance (Experimental Example 4). The settings on record: as in Example <3-2>. It is filed as cell-based. As for the experimental part:
(§2) Particularly, 100 μl of poly-HEMA (Sigma) at the concentration of 12 mg/ml was loaded in 96-well plate, which stood in clean bench for 1 day, followed by drying. On the next day, the plate was coated with Poly-HEMA once again. Cells were distributed in the poly-HEMA coated plate by 100 μl/well (1×10^4 cells/well). At that time, serum-free medium was used. 6 days later, 10 μl of CCK-8 reagent (Dojindo cat. CK04-13) was added to each well, followed by reaction for 3 hours. Then, OD450 was measured.
In particular, a cellular survival rate was measured using absorbance in the same manner as in Example <3-2>.

In assay [2] the test system is SW480 cells. Briefly: Cell survivability under anchorage independent condition (polyHEMA, CCK-8, OD450) with peptides. The settings on record: 6 days, serum-free. It is filed as cell-based, human. On the procedure:
6 days later, cell survivability was measured by colorimetric technique under the anchorage independent condition.
as §2

The test system of assay [3] is C8161 (human melanoma) cell line. As to the kind of experiment: Transwell invasion assay with C8161 cells in the presence of the peptide. Type of assay: cell-based. The settings on record: 24 h. On the procedure:
Specifically, C8161 (human melanoma) cell line was cultured in DMEM containing 10% FBS, penicillin-streptomycin, L-glutamine, sodium pyruvate and glucose. C8161 cells (1×10^4) in the presence of the peptide were plated in serum-free medium on 24-well Transwell inserts (8 μm pore size; Costar, USA) coated with 25 μg of […] (BD Biosciences, USA). The underside of the insert was coated with 100 μl of collagen type I (Sigma) at the concentration of 5 μg/ml. […] The number of cells that had invaded was counted in five representative fields per insert. Then, mean value and standard deviation were obtained.

In the case of CLTTDWVH (A/B common), the “invasion of colorectal cancer cells compared to the control” value (“invasion … compared to the control” for short) with SW480 cells [1] was “effects similar to those of A_C-term2 and B_C-term2”.

As to EENCGNP (A_C-term2), in the assay on SW480sub cells, the “invasion reduced compared to vehicle control” value was determined as 46% and the “colorectal cancer cell invasion reduced by / inhibitory effects on invasion” value is given as “about 99%”. For the same substance, in the assay with SW480 cells [1], the “invasion … compared to the control” value is “inhibited the invasion” and the “invasion of cells reduced by” value came out at 38%.

As for EENCGNPEHCLT (A_C-term1), the “survival of colorectal cancer cells” value in the assay with colorectal cancer cells was “inhibitory effects on the survival of colorectal cancer cells in a concentration-dependent manner”. In addition, in the assay on SW480sub cells, the “invasion reduced compared to vehicle control” value stood at 48% and the “colorectal cancer cell invasion reduced by / inhibitory effects on invasion” value was “about 92%”. In addition, in the assay on SW480 cells [1], the “invasion of cells reduced by” value was found to be 48%.

As for “EENCGNPEHCLTTDWVH (A_intact) [17 amino acid peptide from the extracellular domain of C12orf59 isoform 1]”, the “invasion reduced compared to vehicle control” value in the assay with SW480sub cells came out at 40%. For the same substance, the “cell survivability reduced by” value in the assay on SW480 cells [2] is 82%. Further, the “C8161 invasion reduced by” value in assay [3] (30 μg/ml) came out at 10%; in assay [3] (100 μg/ml), 45%.

Take NPEHCLT (A_Cen): in the assay on SW480 cells [1], the “invasion of cells reduced by” value came to 49%.

Consider NPEHCLTTDWVH (A_N-term), for which the “survival of colorectal cancer cells” value in the assay with colorectal cancer cells is listed as “inhibitory effects on the survival of colorectal cancer cells in a concentration-dependent manner”. Moreover, the “invasion of cells reduced by” value in the assay with SW480 cells [1] was 39%.

PCCISS (B_Cen2): in the assay with SW480 cells [1], the “invasion … compared to the control” value is given as “superior inhibitory effects”.

With PCCISSCCLTTDWVH (B_N-term), in the assay on colorectal cancer cells, the “survival of colorectal cancer cells” value is listed as “inhibitory effects on the survival of colorectal cancer cells in a concentration-dependent manner”.

Take SWRPQPCCIS (B_C-term2): the “invasion reduced compared to vehicle control” value in the assay with SW480sub cells came out at 50%. In the assay with SW480 cells [1], the “invasion … compared to the control” value is given as “inhibited the invasion” and the “invasion of cells reduced by” value turned out to be 39%.

For the substance SWRPQPCCISSCCLT (B_C-term1), in the assay on colorectal cancer cells, the “survival of colorectal cancer cells” value is “inhibitory effects on the survival of colorectal cancer cells in a concentration-dependent manner”.

Values taken from patent US9765118B2, “Pharmaceutical composition for cancer prevention and treatment containing peptide originated from C12orf59 protein as an active ingredient” (KOREA RESEARCH INSTITUTE OF BIOSCIENCE AND BIOTECHNOLOGY, priority 2010, dated 2017).
